Laboratory results taken from patent US20080075662A1, “Novel Method for Analyzing Nucleic Acid Et Use Thereof for Evaluating the Degree of Mrna Editing of the Serotonin 5-Ht2c Receptor” (priority 2002, published 2008).
[I] = hypoxanthine (inosine)

System: oligonucleotide complementary to the probe with the exception of the base complementary to the dI at position 15
Assay: Specificity of the array of probes: hybridization with a single-mismatch oligonucleotide
Type: binding

## d(CAITICGTIITCCTITT) (DNA CANTNCGTNNTCCTNTT; DNA, [I] at 3, 5, 9, 10, 15, backbone not given here) [SEQ ID No. 32]
At the hybridization temperature chosen for all probes (between 61.1 and 54.13° C., preferably about 57.6° C.)
  hybridization with mismatched oligonucleotide: does not hybridize
Duplex with oligonucleotide mismatched opposite the dI at position 15 of the probe
  Tm: 49.4 °C
